Data from patent US20260008048A1, “POLYSILOXANE-BASED DEVICES WITH REDUCED DRUG ABSORPTION CHARACTERISTICS” (THE JOHNS HOPKINS UNIVERSITY, priority 2022, published 2026).
≈ marks a conversion by molar mass, not a printed value. Entries after “also recorded” stand apart in the source; their conditions may differ.

How the values were obtained:
[1] = Drug absorption after drug pretreatment of PDMS / PDMS-PEG samples; format: physicochemical; details: 24 hour pretreatment
Protocol: We pretreated with 200 μM and 1 mM concentrations and 1 week of absorption was measured (FIG. 4A). […] For these experiments, we utilized a 24 hour pretreatment step.
Drug Pretreatment: PDMS, 1% block copolymer, and 2% block copolymer samples were prepared as mentioned above. […] Pretreated samples were then transferred to a fresh 100 μM drug solution for one week of absorption, and absorption was assessed as described.

[2] = as above; format: physicochemical; details: 1 week pretreatment, 100 μM
[3] = 1-week drug absorption by PDMS / PDMS-PEG block copolymer plugs (UV-Vis); format: physicochemical; details: 100 μM drug, 37° C.; for 1-week drug absorption with block copolymer versus PDMS: 1% and 2% BCP; for reduction of drug absorption by PDMS-PEG block copolymer additives: compared to PDMS
Protocol: Plug size was chosen to be similar to many microfluidic devices. After 1 week, the drug concentration was measured using UV-Vis spectroscopy, the area under the curve (AUC) was calculated, and each value was compared to drug standards to determine the percent drug loss (FIG. 2A).
PDMS-PEG Fabrication: PDMS was prepared as previously described in Scott, L. E., Mair, D. B., Narang, J. D., Feleke, K. & Lemmon, C. A. Fibronectin fibrillogenesis facilitates mechano-dependent cell spreading, force generation, and nuclear size in human embryonic fibroblasts. […] PDMS base was mixed with PDMS crosslinker at a […] for 5 minutes and was then degassed in a desiccator for 30 minutes. […] 8 mm plugs were taken using a biopsy punch and used in downstream experiments. This height/diameter was chosen to provide a surface to volume ratio of ˜0.2/mm, similar to that found in microfluidic devices.
Drug absorption experimental setup: Samples were added to glass vials. A 1.5 mL volume of 100 μM pharmaceutical solution was added, and the samples were fully submerged in the solution. […] Experimental samples were compared to controls, in which drug was incubated for one week without a PDMS sample. The mean of the controls was taken as the total drug concentration without absorption, and the percent drug loss was calculated as
UV-Vis: Following experimental absorption, 2 μL samples were measured (Nanodrop 2000, ThermoFisher Scientific). Measurements were taken in triplicate for each sample to decrease noise. […] The area under the curve was used to calculate the precent drug loss, compared to the AUC of the drug standards. Sample size equals three, with three independent measurements per sample.

[4] = cited from earlier work
[5] = system: engineered heart tissue (EHT); experiment: Engineered heart tissue (Mantarray) twitch force dose response
Text: We utilized the commercially available Mantarray (Curi Bio) engineered heart tissue (EHT) platform to perform these screens. In this platform, the EHT self assembles between two posts, one soft and bendable, and the other stiff and immovable (FIG. 6B). The soft post has an embedded magnet, and deflection of the post due to EHT contraction results in changes in magnetic flux. The tissues can be placed over magnetic sensor arrays in the Mantarray system to measure this change in flux and calculate the twitch forces and kinetics.
After drug was allowed to absorb for 1 week, dose response curves were measured for each condition. […]
Engineered Heart Tissue Fabrication: The Mantarray (Curi Bio) is a system designed for reproducible fabrication and functional measurements of EHTs in a 24-well plate format. […] Cardiomyocytes and HS27A stromal cells (ATCC) were lifted using 0.05% trypsin+EDTA, counted, and resuspended at 8.3 million cells/mL and 2.5 million cells/mL, respectively. […]
EHT Dosing and Contractile Measurements: EHTs were fabricated as described above and paced to measure average force output. […] EHTs were paced at 5.0 V 1 Hz with a pulse duration of 10 milliseconds and average force output readings were recorded using a Mantarray for 60 seconds to give an initial mean force average. […] Percent reduction in twitch force following exposure to drug was then calculated using the equation

[6] = cited from earlier work; remark: listed apart in the source
[7] = 200 μM and 1 mM, PDMS, 1% and 2% BCP overall

| SMILES | effect of pretreating with higher dosages on drug absorption [1, 7] | effect of pretreating with higher dosages on drug absorption ([1]; 200 μM, 2% BCP) | effect of pretreating with higher dosages on drug absorption ([1]; 1 mM, PDMS) | effect of pretreating with higher dosages on drug absorption ([1]; increasing dosage, 1% BCP) | effect of pretreating with higher dosages on drug absorption ([1]; increasing dosage, PDMS) | effect of pretreating with experimental dosages for 1 week on drug absorption ([2]; PDMS and PDMS-PEG BCP samples) | 1-week drug absorption with block copolymer versus PDMS [3] | reduction of drug absorption by PDMS-PEG block copolymer additives [3] [%] | Solubility in H2O [4] [mg/mL] | IC50 of drug incubated with APC compared to control ([5]; drug incubated 1 week at 37° C. with APC (2% block copolymer-1 mM)) | IC50 of drug incubated with PDMS compared to control and APC ([5]; drug incubated 1 week at 37° C. with PDMS) | logP [6] | effect of pretreating with higher dosages on drug absorption ([1]; 1 mM, 2% BCP) | effect of pretreating with experimental dosages for 1 week on drug absorption ([2]; PDMS only) |
| --- | --- | --- | --- | --- | --- | --- | --- | --- | --- | --- | --- | --- | --- | --- |
| COCCc1ccc(OCC(O)CNC(C)C)cc1 (stereo not shown) [Metoprolol Succinate] | significant reductions | significant increase in absorption; also recorded: increased | increased | no significant change in absorption | biphasic drug absorption pattern | no significant effect | significantly reduced | 97.2 | 1000 |  |  |  |  |  |
| COc1ccc(CCN(C)CCCC(C#N)(c2ccc(OC)c(OC)c2)C(C)C)cc1OC (stereo not shown) [Verapamil] |  |  |  |  |  |  |  |  |  | not significantly different from control | significantly reduce the IC50 value |  |  |  |
| CC(C)(C)c1ccc(C(O)CCCN2CCC(C(O)(c3ccccc3)c3ccccc3)CC2)cc1 (stereo not shown) [Terfenadine] | further decrease terfenadine absorption; also recorded: significant reductions |  |  |  |  | significantly decreases terfenadine absorption | significantly reduced | 61.8 | 0.0963 (≈ 204 µM) |  |  | 6.6 |  |  |
| CC(C)COCC(CN(Cc1ccccc1)c1ccccc1)N1CCCC1 (stereo not shown) [Bepridil] | significant reductions |  |  | a decrease, followed by an increase in drug absorption; also recorded: increased | a decrease, followed by an increase in drug absorption; also recorded: increased |  | no significant improvement |  | 0.05655 (≈ 154 µM) |  |  | 5.2 | significantly decreases absorption | significantly decreases bepridil absorption |
